In patent US11591294B2, “Fluorenone/fluorenol derivatives for aqueous redox flow batteries” (Battelle Memorial Institute, priority 2019, dated 2023):
Converted amounts (≈) assume the structure as drawn. Read-outs that look alike come from different tables or passages of the source.

Legend:
[1] = Solubility test; assay type: physicochemical
Description: Solubility test: The dissolving solvent was added drop by drop to 1 mmol of testing powder with intermittent agitation with VWR Vertex mixer, until all powder was dissolved. The total mass of the solution was recorded. A glass micro syringe was used to transfer 100 μL of the solution directly to a tared weight glass vial for mass measurement. Specific gravity of the as-obtained solution was calculated, then the total volume of the as-obtained solution was calculated using calculated density and recorded total solution mass. Last, molarity was calculated based on calculated total solution volume (Duan et al., ACS Energy Letters 2017, 2:1156-1161).
The solubilities of as-synthesized FLs in basic solution, 2 M NaOH/KOH, was investigated. […] The energy density is almost double that of a conventional vanadium electrolyte.

[2] = 2M KOH column; literature data provided as a comparison (tested in KOH); cited from earlier work
[3] = Post-cycling analysis of anolyte (NMR, mass spectroscopy); assay type: physicochemical; conditions: after 6-month operation, 1.36 M anolyte
Description: An additional test was conducted for six months (FIG. 18). […] At about cycle 650, catholyte precipitation was noticed, and replaced with fresh catholyte. No material degradation was detected by NMR or mass-spectroscopy (FIGS. 21 and 22).
For the reason that charged anolyte is usually sensitive to 02, flow battery tests of organic based electrolyte reported so far are conducted in inert atmosphere, which is a significant hurdle to their practical applications. We submit another battery test without significant deaerating treatment at reasonable CE and EE (FIGS. 34 and 35). The 1 M battery was assembled without N2 atmosphere, sealed with a stopper and parafilm, and no further deoxygenation was conducted before charging. The battery operated stably at 20 mA/cm^2 for 2 weeks. The observed capacity fluctuation was attributed to temperature changes on a daily basis. […] The first cycle low CE was attributed to charged material consuming existing 02 in the cell system. As expected, the first cycle charging capacity was a little higher than same amount of substance in a battery inside the purge box (without 02 induced discharge influence). However, no irreversible side reactions occurred and long-term cycling occurred analogous to tests conducted in an inert atmosphere purge box. […]

[4] = Cyclic voltammetry in aqueous 1 M NaOH; assay type: physicochemical; conditions: 1 M NaOH solution
Description: Electrochemical tests: CV measurements in aqueous phase were performed using a three-electrode configuration consisting of a glassy carbon working electrode (3 mm diameter), a glassy carbon counter electrode and an Ag/AgCl reference electrode. The electrolytes of 10 mM redox-active materials in 1.0 M NaOH were used. CV data were collected using a CHI760D potentiostat (CH Instruments) at a scan rate of 100 mV s^−1 (Hollas et al., Nature Energy 2018, 3:508-514). CV measurements in nonaqueous phase were performed using a three-electrode configuration consisting of a glassy carbon working electrode (3 mm diameter), a glassy carbon counter electrode and an Ag/AgNO3 (10 mM in Acetonitrile) as reference electrode or Ag wire as pseudo reference electrode (Inzelt et al., Handbook of Reference Electrodes, 2013, Springer). Tests were carried out in an argon-filled Mbraun glove box (Stratham, N.H., USA).
In view of the DFT calculation, it was theorized that functionalization of the FL ring structures with electron withdrawing groups such as —F, -sulfonamide, and —SO3−, among others, would shift the equilibrium constant to increase the concentration of deprotonated FL-OH anion/dianion relative to FL-OH, thereby improving the two-electron redox-reversibility of FLs. […] As expected, the CV curves with two pairs of peaks become clear and sharp with adding stronger electron withdrawing groups. […]

[5] = 2 M KOH solution, aqueous buffer, thermodynamic from solid, 2M KOH, read-out: Solubility
[6] = 2 M NaOH solution, aqueous buffer, thermodynamic from solid, 2M NaOH, read-out: Solubility

With `O=C(O)c1ccc2c(c1)C(=O)c1cc(S(=O)(=O)[O-])ccc1-2.[K+]` [Compound 2C7SFL] the solubility [1, 5] was 700 mM and the solubility [1, 6] was 1100 mM.

In the case of `O=C(O)c1ccc2c(c1)C(=O)c1ccccc1-2` [Compound 2CFL], the solubility [2] is given as 0.8 M (≈ 179 mg/mL).

`O=C(O)c1cccc2c1-c1ccc(S(=O)(=O)O)cc1C2=O` [Compound 4C7SFL, 9-Oxo-7-sulfo-9H-fluorene-4-carboxylic acid] gave a solubility [1, 5] of 1300 mM (≈ 396 mg/mL), a solubility [1, 6] of 1500 mM (≈ 456 mg/mL) and an available electron concentration ([1]; two-electron redox reaction, from solubility) of roughly 3 M. The “post-cycling analysis (in words)” value [3] was “small, yet observable new aromatic peaks attributed to de-sulfonation on the fluorenone core structure”.

In the case of `O=C(O)c1cccc2c1-c1ccccc1C2=O` [Compound 4CFL], the solubility [2] is given as 0.65 M (≈ 146 mg/mL).

`N#Cc1nc2c(nc1O)-c1ccccc1C2=O` [Compound 14N2CN3OHFL, 3-hydroxy-9-oxo-9H-indeno[1,2-b]pyrazine-2-carbonitrile] gave a solubility [1, 6] of 1000 mM (≈ 223 mg/mL) and a reversible peak potential [4] of roughly −0.85 V vs Ag/AgCl.

With `O=C1c2cc(Br)cc(S(=O)(=O)[O-])c2-c2c1cc(Br)cc2S(=O)(=O)[O-].[K+].[K+]` [Compound 27Br4SFL] the solubility ([1]; 2M KOH) was “trace” and the solubility ([1]; 2M NaOH) was “trace”.

`O=C(O)c1cc(F)cc2c1-c1c(cc(F)cc1S(=O)(=O)[O-])C2=O.[K+]` [Compound 27F4C5SFL] showed a solubility ([1]; 2M NaOH) of 150 mM.

Compound `O=C(O)c1cc(F)cc2c1-c1ccc(F)cc1C2=O` [Compound 27F4CFL] has a solubility ([1]; thermodynamic from solid, with agitation, copious precipitate after sitting overnight, read-out: Solubility (transparent homogeneous solution)) of no more than 1400 mM.

For `O=C(O)c1cc(S(=O)(=O)O)cc2c1-c1ccc(S(=O)(=O)O)cc1C2=O` [Compound 27S4CFL, 9-oxo-2,7-sulfo-9H-fluorene-4-carboxylic acid], the solubility ([1]; 2M NaOH) was 800 mM (≈ 307 mg/mL).

In the case of `O=C1c2cccnc2-c2ncccc21` [Compound 45NFL, 4,5-diazafluoren-9-one], the “solubility (in words)” value [1] is reported as “limited solubility”.

With `O=C(O)c1ccc2c(c1)C(=O)c1cc(C(=O)O)ccc1-2` [DCFL] the solubility ([1]; 2M KOH) was 900 mM (≈ 241 mg/mL) and the solubility ([1]; 2M NaOH) was 40 mM (≈ 10.7 mg/mL).

`O=C1c2cc(O)ccc2-c2ccc(O)cc21` [DHFL, 9-oxo-2,7-dihydroxy-9H-fluorene] showed a solubility ([1]; pure water with 2 eq. NaOH, aqueous buffer, thermodynamic from solid, with 2 eq. NaOH in pure water, read-out: Solubility) of 600 mM (≈ 127 mg/mL).

In the case of `O=C1c2cc(S(=O)(=O)[O-])ccc2-c2ccc(S(=O)(=O)[O-])cc21.[K+].[K+]` [DSFL, Potassium 9-oxo-9H-fluorene-2,7-disulfonate], the solubility ([1]; 2 M KOH solution, aqueous buffer, thermodynamic from solid, read-out: Solubility) is reported as less than 50 mM, the solubility ([1]; 2 M NaOH solution, aqueous buffer, thermodynamic from solid, read-out: Solubility) is reported as less than 50 mM and the solubility ([1]; thermodynamic from solid, disodium salt in pure water, read-out: Solubility) is reported as no more than 240 mM.

In the case of `O=C1c2cc(OCCOCCOCCO)ccc2-c2ccc(OCCOCCOCCO)cc21` [PEG-FL], the solubility ([1]; 2M KOH) is reported as “trace” and the solubility ([1]; 2M NaOH) is reported as “trace”.
